Consider 5 molecules from patent publication EP1018560A1, “VECTORS FOR TREATING CANCER” (Dnavec Research Inc., priority 1997, dated 1999).

Molecules are shown by their SMILES. Counter-ions that a name gives are not always drawn. Starred links: 1 amine or outer side, 2 acyl side, 3 side chain; linkers in the order of their positions; H or OH if unused. Positions of bridges follow the written chain, without caps; N, C: chain ends. Non-standard residues stand in square brackets, D forms with d. Residues, ends and D or L forms follow the SMILES beside them. Chains are numbered I, II in the order given. Actinocin(9to1) = Cc1c2oc3c(C)ccc(C(=O)[*:1])c3nc-2c(C(=O)[*:2])c(N)c1=O; NMeV = CN[C@H](C(=O)O)C(C)C; Sar = CNCC(=O)O

In one test the test system is U2OS cells (p53+). In words: Potentiation of p53-dependent suppression of expression by antitumor agents (β-galactosidase activity). In kind it is cell-based. The method, then: U2OS cells (p53+) that had been placed into six-well plates (6 x 10^5 cells per well) on the previous day were infected with AxYp53RECre at the indicated MOIs. Various compounds (actinomycin D, doxorubicin hydrochloride, etoposide, and nocodazole, all from Sigma, USA) were then added at the indicated concentrations. On the next day, the compounds were removed, and AxCAYLLZ was infected at the indicated MOIs. Six days later, crude extracts of infected cells were prepared and assayed for β-galactosidase activity similarly as described in 3-1). […]

Test [1] deals with p53-Deficient Saos2 cells. In words: Cell death specific to p53-deficient cells (ganciclovir sensitivity, viable cell number). In kind it is cell-based, human. The following applies: combination of AxYp53RECre, AxCAYLTK, and ganciclovir; Saos2 versus U20S cells. As to the method: p53-Deficient Saos2 cells and p53-expressing U20S cells were inoculated then cultured in the presence of 50 ng/ml nocodazole (Sigma, USA) on the next day. Nocodazole was removed on the following day, and the cells were infected with AxYp53RECre at the indicated MOIs. On the day after that, the cells were further infected with AxCAYLTK at the indicated MOIs. Three days later, infected cells were placed into 96-well plates at a quantity of 2000 cells/well, and various concentrations of ganciclovir (Nippon Roche) were added thereto. Seven days later, the number of viable cells was counted using a Cell Titer 96 AQueous Non-Radioactive Cell Proliferation Assay (Promega, USA). […] In this figure, "% viable cell number" refers to the relative number of cells compared to the number of cells in the absence of ganciclovir taken as 100. Mean values of five samples are shown. Error bars show standard deviations.

For the molecule `Cc1c2oc3c(C)ccc(C(=O)N[C@@H]4C(=O)N[C@H](C(C)C)C(=O)N5CCC[C@H]5C(=O)N(C)CC(=O)N(C)[C@@H](C(C)C)C(=O)O[C@@H]4C)c3nc-2c(C(=O)N[C@@H]2C(=O)N[C@H](C(C)C)C(=O)N3CCC[C@H]3C(=O)N(C)CC(=O)N(C)[C@@H](C(C)C)C(=O)O[C@@H]2C)c(N)c1=O` [actinomycin D] (I: T[dV]P[Sar][NMeV] / II: T[dV]P[Sar][NMeV]; ester I:1-I:C, II:1-II:C; linker I:N-II:N via Actinocin(9to1)), the “Remaining β-galactosidase activity” value is given as 100% with U2OS cells (p53+) (AxCAYLLS MOI 10, pAxYp53RECre MOI 0, 10 ng/ml actinomycin D (reference)) and 2.4% in the test with U2OS cells (p53+) (AxCAYLLS MOI 10, pAxYp53RECre MOI 30, 10 ng/ml actinomycin D).

Regarding `COc1cccc2c1C(=O)c1c(O)c3c(c(O)c1C2=O)C[C@@](O)(C(=O)CO)C[C@@H]3O[C@H]1C[C@H](N)[C@H](O)[C@H](C)O1` [doxorubicin, doxorubicin hydrochloride], the “Remaining β-galactosidase activity” value in the test with U2OS cells (p53+) (AxCAYLLS MOI 10, pAxYp53RECre MOI 0, 100 ng/ml doxorubicin (reference)) came to 100%; in the test with U2OS cells (p53+) (AxCAYLLS MOI 10, pAxYp53RECre MOI 30, 100 ng/ml doxorubicin), 0.5%.

As for `COc1cc([C@@H]2c3cc4c(cc3[C@@H](O[C@@H]3O[C@@H]5CO[C@@H](C)O[C@H]5[C@H](O)[C@H]3O)[C@H]3COC(=O)[C@H]23)OCO4)cc(OC)c1O` [etoposide], the “Remaining β-galactosidase activity” value came to 100% with U2OS cells (p53+) (AxCAYLLS MOI 10, pAxYp53RECre MOI 0, 1000 ng/ml etoposide (reference)) and 0.6% with U2OS cells (p53+) (AxCAYLLS MOI 10, pAxYp53RECre MOI 30, 1000 ng/ml etoposide).

For the molecule `Nc1nc(O)c2ncn(COC(CO)CO)c2n1` [ganciclovir], the cell death result in test [1] is “caused cell death specific to p53-deficient cells”.

Consider `COC(=O)Nc1nc2ccc(C(=O)c3cccs3)cc2[nH]1` [nocodazole], for which the “Remaining β-galactosidase activity” value with U2OS cells (p53+) (AxCAYLLS MOI 10, pAxYp53RECre MOI 0, 50 ng/ml nocodazole (reference)) is reported as 100%; in the test on U2OS cells (p53+) (AxCAYLLS MOI 10, pAxYp53RECre MOI 10, 50 ng/ml nocodazole) it was 31%.
